This note sets out measurements from ChEMBL document CHEMBL3745675, “Design and optimization of selective azaindole amide M1 positive allosteric modulators” (Bioorg Med Chem Lett, 2016).

Data set [1] in a line: Ratio of unbound AUC in brain to plasma in C57BL/6j mouse. To be noted: read-out: Ratio AUC. The data set is classed as ADME, organism-based.
The nature of data set [2]: Permeability in RRCK cells. As to conditions: dog, MDCK; read-out: permeability. The format is ADME, cell-based, Canis lupus familiaris, MDCKII-LE.
Another data set relates to Plasma. As to the kind of experiment: Fraction unbound in C57BL/6j mouse plasma. The data set is classed as ADME, cell-free.

Molecules are shown by their SMILES.

As to `O=C(N[C@H]1CCOC[C@@H]1O)c1cn(Cc2ccc(-n3cccn3)cc2)c2cccnc12`, the Kp uu in data set [1] is 0.04. For the same compound, the Papp in data set [2] is 21.7 ×10⁻⁶ cm/s. For the same compound, the “Cp(f)” value with Plasma is 0.13 nM.
